In US8575201B2 (Boehringer Ingelheim International GmbH, priority 2010, dated 2013):

What was measured:
[1] = molecular target: recombinant human FLAP protein (Homo sapiens (Human), UniProt P20292); experiment: FLAP binding assay (Scintillation Proximity Assay, displacement of [125I]L-691,831); details: read-out: FLAP SPA IC50
Method: Assessment of Biological Properties 1. Binding Assay: Compounds are assessed for the ability to bind to FLAP in a binding assay that measures compound-specific displacement of an iodinated (^125I) FLAP inhibitor via a Scintillation Proximity Assay format (adapted from S. Charleson et al., Mol. Pharmacol., 1992, 41, 873-879). […] The cells are lysed with a Dounce homogenizer and the material is centrifuged at 10,000×g for 10 minutes. The supernatant is then collected and centrifuged at 100,000×g for 60 minutes. To prepare membrane protein for an assay, an aliquot of the 100,000×g pellet is resuspended in 1 ml of buffer A, Dounce homogenized, and finally subjected to polytron mixing (30 seconds). […] Mol. Pharmacol., 41, 873-879, 1992) and finally 50 μl of the bead/protein mixture. (final concentrations: beads, 200 μg/well; protein, 5 μg/well; […] The plates are shaken for 2 h before reading on a Microbeta plate reader.

[2] = system: synthesis of LTB4 in human whole blood; experiment: Human whole blood LTB4 production inhibition assay; type: cell-based; details: calcimycin stimulated, read-out: hWB LTB4 IC50
Method: Compounds are additionally tested in a human whole blood assay to determine their ability to inhibit the synthesis of LTB4 in a cellular system. Compounds are combined with heparinized human whole blood and incubated for 15 minutes at 37° C. Calcimycin (20 μM final, prepared in phosphate-buffered saline, pH 7.4) is then added and the mixture is incubated for another 30 minutes at 37° C. The samples are centrifuged for 5 min at low speed (1500×g) and the plasma layer is removed. Plasma LTB4 concentrations are then measured using an antibody-based homogenous time-resolved fluorescence method (CisBio, Bedford, Mass.).

Chain of recombinant human FLAP protein (P20292 whole entry): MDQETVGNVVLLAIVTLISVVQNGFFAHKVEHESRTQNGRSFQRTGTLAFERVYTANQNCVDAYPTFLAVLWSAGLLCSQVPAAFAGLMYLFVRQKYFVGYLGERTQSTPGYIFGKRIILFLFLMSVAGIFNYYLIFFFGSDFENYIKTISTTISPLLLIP

Row | IC50 [1] [nM] | IC50 [2] [nM] | Compound
1 | 27 | 400 | 5-(6-{1-[5-(3-methyl- 1H-pyrazol-4-yl)-1,2,4- oxadiazol-3- yl]cyclobutyl}pyridin-3- yl)pyrimidin-2-amine [Example 135]
2 | 3.8 | 280 | CC(C)(C)OC(=O)N1CCN(c2ccc(-c3nc(C4(c5ccc(-c6cnc(N)nc6)nc5)CCC4)no3)cn2)CC1 [Example 1, tert-butyl 4-[5-(3-{1-[6-(2-aminopyrimidin-5-yl)pyridin-3-yl]cyclobutyl}-1,2,4-oxadiazol-5-yl)pyridin-2-yl]piperazine-1-carboxylate]
3 | 5 | 740 | NC(=O)CNc1ccc(-c2nc(C3(c4ccc(-c5cnc(N)nc5)nc4)CCC3)no2)cn1 [Example 2, N-2-[5-(3-{1-[6-(2-aminopyrimidin-5-yl)pyridin-3-yl]cyclobutyl}-1,2,4-oxadiazol-5-yl)pyridin-2-yl]glycinamide]
4 | 2.7 | 150 | Nc1ncc(-c2ccc(C3(c4noc(-c5ccc(N6CCNCC6)nc5)n4)CCC3)cn2)cn1 [Example 3, 5-[5-(1-{5-[6-(piperazin-1-yl)pyridin-3-yl]-1,2,4-oxadiazol-3-yl}cyclobutyl)pyridin-2-yl]pyrimidin-2-amine]
5 | 17 | 430 | Nc1ncc(-c2ccc(C3(c4noc(-c5cc[nH]n5)n4)CCC3)cn2)cn1 [Example 4, 5-(5-{1-[5-(1H-pyrazol-3-yl)-1,2,4-oxadiazol-3-yl]cyclobutyl}pyridin-2-yl)pyrimidin-2-amine]
6 | 8.8 | 1100 | Cc1cccc(-c2nc(C3(c4ccc(-c5cnc(N)nc5)nc4)CCC3)no2)c1 [Example 5, 5-(5-{1-[5-(3-methylphenyl)-1,2,4-oxadiazol-3-yl]cyclobutyl}pyridin-2-yl)pyrimidin-2-amine]
7 | 5.8 | 830 | Cc1ccc(-c2nc(C3(c4ccc(-c5cnc(N)nc5)nc4)CCC3)no2)cc1 [Example 6, 5-(5-{1-[5-(4-methylphenyl)-1,2,4-oxadiazol-3-yl]cyclobutyl}pyridin-2-yl)pyrimidin-2-amine]
8 | 11 | 690 | CS(=O)(=O)c1ccc(-c2nc(C3(c4ccc(-c5cnc(N)nc5)nc4)CCC3)no2)cc1 [Example 7, 5-[5-(1-{5-[4-(methylsulfonyl)phenyl]-1,2,4-oxadiazol-3-yl}cyclobutyl)pyridin-2-yl]pyrimidin-2-amine]
9 | 2 | 110 | CCNc1ccc(-c2nc(C3(c4ccc(-c5cnc(N)nc5)nc4)CCC3)no2)cn1 [Example 8, 5-[5-(1-{5-[6-(ethylamino)pyridin-3-yl]-1,2,4-oxadiazol-3-yl}cyclobutyl)pyridin-2-yl]pyrimidin-2-amine]
10 | 2.9 | 320 | Nc1ncc(-c2ccc(C3(c4noc(-c5ccc(NC6CC6)nc5)n4)CCC3)cn2)cn1 [Example 9, 5-[5-(1-{5-[6-(cyclopropylamino)pyridin-3-yl]-1,2,4-oxadiazol-3-yl}cyclobutyl)pyridin-2-yl]pyrimidin-2-amine]
11 | 30 | 650 | Nc1ncc(-c2ccc(C3(c4noc(-c5cc(N)[nH]n5)n4)CCC3)cn2)cn1 [Example 10, 5-(5-{1-[5-(5-amino-1H-pyrazol-3-yl)-1,2,4-oxadiazol-3-yl]cyclobutyl}pyridin-2-yl)pyrimidin-2-amine]
12 | 78 | 2200 | CS(=O)(=O)c1cccc(-c2nc(C3(c4ccc(-c5cnc(N)nc5)nc4)CCC3)no2)c1 [Example 11, 5-[5-(1-{5-[3-(methylsulfonyl)phenyl]-1,2,4-oxadiazol-3-yl}cyclobutyl)pyridin-2-yl]pyrimidin-2-amine]
13 | – | 210 | COCCn1cc(-c2nc(C3(c4ccc(-c5cnc(N)nc5)nc4)CCC3)no2)cn1 [Example 28, 5-[5-(1-{5-[1-(2-methoxyethyl)-1H-pyrazol-4-yl]-1,2,4-oxadiazol-3-yl}cyclobutyl)pyridin-2-yl]pyrimidin-2-amine]
14 | – | 86 | COC(=O)[C@@H]1CN(c2ccc(-c3nc(C4(c5ccc(-c6cnc(N)nc6)nc5)CCC4)no3)cn2)CCN1 [Example 39, methyl (2S)-[5-(3-{1-[6-(2-aminopyrimidin-5-yl)pyridin-3-yl]cyclobutyl}-1,2,4-oxadiazol-5-yl)pyridin-2-yl]piperazine-2-carboxylate]
15 | – | 24 | COCCNc1cnc(-c2nc(C3(c4ccc(-c5cnc(N)nc5)nc4)CCC3)no2)cn1 [Example 56, 5-{5-[1-(5-{5-[(2-methoxyethyl)amino]pyrazin-2-yl}-1,2,4-oxadiazol-3-yl)cyclobutyl]pyridin-2-yl}pyrimidin-2-amine]
16 | – | 34 | CCNc1cnc(-c2nc(C3(c4ccc(-c5cnc(N)nc5)nc4)CCC3)no2)cn1 [Example 57, 5-[5-(1-{5-[5-(ethylamino)pyrazin-2-yl]-1,2,4-oxadiazol-3-yl}cyclobutyl)pyridin-2-yl]pyrimidin-2-amine]
17 | – | 41 | CN1CCN(c2cnc(-c3nc(C4(c5ccc(-c6cnc(N)nc6)nc5)CCC4)no3)cn2)CC1 [Example 61, 5-[5-(1-{5-[5-(4-methylpiperazin-1-yl)pyrazin-2-yl]-1,2,4-oxadiazol-3-yl}cyclobutyl)pyridin-2-yl]pyrimidin-2-amine]
18 | – | 68 | Nc1ncc(-c2ccc(C3(c4noc(-c5ccc6[nH]ncc6c5)n4)CCC3)cn2)cn1 [Example 79, 5-(5-{1-[5-(1H-indazol-5-yl)-1,2,4-oxadiazol-3-yl]cyclobutyl}pyridin-2-yl)pyrimidin-2-amine]
19 | – | 190 | CC(C)(C)NC(=O)Cn1cc(-c2nc(C3(c4ccc(-c5cnc(N)nc5)nc4)CCC3)no2)cn1 [Example 144, 2-[4-(3-{1-[6-(2-aminopyrimidin-5-yl)pyridin-3-yl]cyclobutyl}-1,2,4-oxadiazol-5-yl)-1H-pyrazol-1-yl]-N-tert-butylacetamide]
20 | – | 550 | CCNC(=O)Cn1cc(-c2nc(C3(c4ccc(-c5cnc(N)nc5)nc4)CCC3)no2)cn1 [Example 158, 2-[4-(3-{1-[6-(2-amino-pyrimidin-5-yl)-pyridin-3-yl]-cyclobutyl}-[1,2,4]oxadiazol-5-yl)-pyrazol-1-yl]-N-ethyl-acetamide]
21 | – | 21 | Cc1nc(N)cnc1-c1ccc(C2(c3noc(-c4cnn(C5COC5)c4)n3)CCC2)cn1 [Example 169, 6-Methyl-5-(5-{1-[5-(1-oxetan-3-yl-1H-pyrazol-4-yl)-[1,2,4]oxadiazol-3-yl]-cyclobutyl}-pyridin-2-yl)-pyrazin-2-ylamine]
22 | – | 51 | N#CCn1cc(-c2nc(C3(c4ccc(-c5cnc(N)cn5)nc4)CCC3)no2)cn1 [Example 170, [4-(3-{1-[6-(5-Amino-pyrazin-2-yl)-pyridin-3-yl]-cyclobutyl}-[1,2,4]oxadiazol-5-yl)-pyrazol-1-yl]-acetonitrile]
23 | – | 51 | Cc1nc(N)cnc1-c1ccc(C2(c3noc(-c4cnn(CC(C)(C)O)c4)n3)CCC2)cn1 [Example 172, 1-[4-(3-{1-[6-(5-Amino-3-methyl-pyrazin-2-yl)-pyridin-3-yl]-cyclobutyl}-[1,2,4]oxadiazol-5-yl)-pyrazol-1-yl]-2-methyl-propan-2-ol]
24 | – | 18 | CNc1cnc(-c2ccc(C3(c4noc(-c5cnn(CC#N)c5)n4)CCC3)cn2)cn1 [Example 173, [4-(3-{1-[6-(5-Methylamino-pyrazin-2-yl)-pyridin-3-yl]-cyclobutyl}-[1,2,4]oxadiazol-5-yl)-pyrazol-1-yl]-acetonitrile]
